21 compounds from ChEMBL document CHEMBL5390208, “Bioactive Isoquinoline Alkaloids with Diverse Skeletons from Fissistigma polyanthum” (J Nat Prod, 2023) can be followed below.

The target of assay [1] is T1, Amyloid-beta precursor protein (Homo sapiens, UniProt P05067). As to the kind of experiment: Inhibition of amyloid beta 42 (unknown origin) aggregation at 50 uM incubated for 24 hrs by ThT assay relative to control.
Assay [2] is described as follows: Antioxidant activity assessed as ABTS radical scavenging activity incubated for 10 min by spectrophotometric analysis. Format: functional.
The target in the next assay is Acetylcholinesterase (Homo sapiens, UniProt P22303). As to the kind of experiment: Inhibition of AChE (unknown origin) using ATCI as substrate preincubated for 15 min followed by substrate addition measured after 40 min by Ellman's method. For orientation: Ellman's reagent forms a yellow product with free thiols.
Sequence of Acetylcholinesterase (P22303 whole entry): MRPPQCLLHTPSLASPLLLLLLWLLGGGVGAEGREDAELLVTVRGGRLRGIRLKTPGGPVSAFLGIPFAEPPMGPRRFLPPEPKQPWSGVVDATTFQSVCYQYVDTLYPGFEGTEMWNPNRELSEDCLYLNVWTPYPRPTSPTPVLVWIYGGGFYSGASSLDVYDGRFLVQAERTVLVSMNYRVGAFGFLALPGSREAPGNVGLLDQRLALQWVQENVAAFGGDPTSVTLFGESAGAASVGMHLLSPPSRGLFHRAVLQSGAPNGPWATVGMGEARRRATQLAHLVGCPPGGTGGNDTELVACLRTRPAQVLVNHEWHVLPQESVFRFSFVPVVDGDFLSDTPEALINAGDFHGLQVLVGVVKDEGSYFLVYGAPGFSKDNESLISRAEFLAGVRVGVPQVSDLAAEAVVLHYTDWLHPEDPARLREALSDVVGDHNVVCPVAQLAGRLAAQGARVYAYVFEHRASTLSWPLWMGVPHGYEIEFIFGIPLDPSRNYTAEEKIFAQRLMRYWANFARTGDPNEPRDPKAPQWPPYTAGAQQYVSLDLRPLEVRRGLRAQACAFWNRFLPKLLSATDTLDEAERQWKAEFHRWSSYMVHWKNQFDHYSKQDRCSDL
Assay [3] can be described thus: Selectivity ratio, ratio of inhibition of BChE (unknown origin) to inhibition of AChE (unknown origin).
A further assay has as its target Cholinesterase (Homo sapiens, UniProt P06276). As to the kind of experiment: Inhibition of BChE (unknown origin) using BTCI as substrate preincubated for 15 min followed by substrate addition measured after 40 min by Ellman's method.
The target in assay [4] is T1, Amyloid-beta precursor protein. In words: Inhibition of amyloid beta 42 (unknown origin) aggregation incubated for 24 hrs by ThT assay.
The target is the same in assay [5]. As to the kind of experiment: Inhibition of amyloid beta 42 (unknown origin) aggregation assessed as reduction in amyloid beta fibril formation incubated for 72 hrs by Congo Red dye based UV- spectrophotometric analysis.

pIC50: −log10 of the molar value. The source made the active and inactive calls. The calls are words filed in the database; no cut-off is given here. Some results are limits rather than exact numbers.

Sequence of Cholinesterase (P06276 whole entry): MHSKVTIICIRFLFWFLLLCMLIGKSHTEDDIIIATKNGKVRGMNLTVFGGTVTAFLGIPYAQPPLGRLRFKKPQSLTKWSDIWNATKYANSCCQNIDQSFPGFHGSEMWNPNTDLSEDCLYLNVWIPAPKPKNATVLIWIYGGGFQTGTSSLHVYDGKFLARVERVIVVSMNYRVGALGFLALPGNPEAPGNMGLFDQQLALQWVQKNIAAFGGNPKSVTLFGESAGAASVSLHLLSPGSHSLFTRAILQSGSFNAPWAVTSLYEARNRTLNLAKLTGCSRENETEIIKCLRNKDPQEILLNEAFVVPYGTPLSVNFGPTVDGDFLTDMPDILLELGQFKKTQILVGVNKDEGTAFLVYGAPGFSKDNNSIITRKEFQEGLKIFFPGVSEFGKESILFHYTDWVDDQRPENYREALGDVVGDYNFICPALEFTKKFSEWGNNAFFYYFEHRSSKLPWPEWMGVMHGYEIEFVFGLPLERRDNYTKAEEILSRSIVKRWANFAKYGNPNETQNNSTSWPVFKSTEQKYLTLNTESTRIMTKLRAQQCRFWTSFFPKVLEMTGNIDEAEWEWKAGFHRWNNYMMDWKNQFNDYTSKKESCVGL
T1 sequence (P05067 whole entry): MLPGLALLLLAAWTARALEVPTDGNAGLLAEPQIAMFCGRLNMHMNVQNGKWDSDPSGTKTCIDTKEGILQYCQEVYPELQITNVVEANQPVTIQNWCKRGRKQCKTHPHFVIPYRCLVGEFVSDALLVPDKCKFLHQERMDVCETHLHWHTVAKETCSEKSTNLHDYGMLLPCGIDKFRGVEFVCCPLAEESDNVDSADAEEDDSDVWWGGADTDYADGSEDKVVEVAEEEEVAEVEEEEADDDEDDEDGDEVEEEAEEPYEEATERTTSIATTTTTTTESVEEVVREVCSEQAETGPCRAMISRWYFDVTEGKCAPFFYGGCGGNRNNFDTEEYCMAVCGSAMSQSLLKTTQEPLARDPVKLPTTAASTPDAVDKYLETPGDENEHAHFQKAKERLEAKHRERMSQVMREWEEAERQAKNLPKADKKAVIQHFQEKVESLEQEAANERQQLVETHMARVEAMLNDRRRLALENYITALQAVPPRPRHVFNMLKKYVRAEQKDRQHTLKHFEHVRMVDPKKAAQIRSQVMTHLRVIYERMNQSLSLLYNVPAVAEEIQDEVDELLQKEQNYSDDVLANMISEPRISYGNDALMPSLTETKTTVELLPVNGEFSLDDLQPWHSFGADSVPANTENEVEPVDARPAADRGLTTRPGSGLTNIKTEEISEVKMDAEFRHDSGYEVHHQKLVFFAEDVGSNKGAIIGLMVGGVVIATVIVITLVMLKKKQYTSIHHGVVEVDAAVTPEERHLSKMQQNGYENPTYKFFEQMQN

`COc1cc2c(c(O)c1OC)CCN1Cc3c(ccc(O)c3OC)C[C@@H]21`: the inhibition (commonly the change of the read-out against control, counted positive when it falls) in assay [1] was “inactive”. The values for the negative logarithm of the IC50 (pIC50) (in assay [2]; on Acetylcholinesterase; against Cholinesterase) were less than 4.30, 4.05 and less than 3.52, respectively. For the same compound, the Ratio IC50 in assay [3] is more than 3.4.
On to `Cc1c(C)c2c(c(C)c1O)CCC(C)(C(=O)O)O2` (stereo unspecified) [TROLOX], for which the negative-log IC50 (pIC50) (in general, −log10 of the IC50, conventionally taken in molar units) in assay [2] was 4.96.
As to `COC1=CC(=O)c2c(cc3c4c(cc5c(c24)OCO5)CCN3C)C1=O`, the pIC50 was less than 4.30 in assay [4], less than 4.30 in assay [2], 3.66 at Acetylcholinesterase and 4.08 on Cholinesterase. Also, the inhibition in assay [1] worked out at 30.7%. Further, the Ratio IC50 in assay [3] is 0.4.
Consider `COc1cc(O)c2c(c1)C[C@@H]1c3c(cc4c(c3-2)OCO4)CCN1C`, for which the pIC50 in assay [4] was less than 4.30; in assay [2] it was 4.83; against Acetylcholinesterase, 4.07; at Cholinesterase, 4.02. Moreover, the inhibition in assay [1] was 15.1%. Moreover, in assay [3], the Ratio IC50 is 1.1.
As to `COC1=C(CC(=O)CCc2ccccc2)C(=O)O[C@@H]1O`, the pIC50 in assay [4] was 4.58; in assay [2] it was less than 4.30; on Acetylcholinesterase it was less than 3.52; against Cholinesterase, less than 3.52. The inhibition in assay [1] was found to be 74.4%. In addition, the inhibition entry in assay [5] was “Active”.
Consider `COc1ccc2c(c1OC)c1c3c4c(cc5c(c42)OCO5)CCN3C(=O)C1=O`, for which the pIC50 in assay [4] is less than 4.30; in assay [2] it was less than 4.30; against Acetylcholinesterase, 4.48; at Cholinesterase it was 3.60. The same compound showed an inhibition in assay [1] of 10.9%. Moreover, the Ratio IC50 in assay [3] was found to be 7.6.
As for `COc1cc(O)c2c(c1)C[C@H]1NCCc3c(OC)c4c(c-2c31)OCO4`, the pIC50 in assay [4] was less than 4.30; in assay [2] it was 4.87; on Acetylcholinesterase, 3.79; on Cholinesterase, 3.85. Further, in assay [1], the inhibition was found to be 44.5%. For the same compound, the Ratio IC50 in assay [3] worked out at 0.9.
`O=C1C(=O)N2CCc3cc4c(c5c3c2c1c1ccccc15)OCO4`: the pIC50 in assay [4] is less than 4.30; in assay [2], less than 4.30; against Acetylcholinesterase, 4.29; on Cholinesterase, 4.86. Further, the inhibition in assay [1] stood at 47.6%. Also, in assay [3], the Ratio IC50 was 0.3.
Take `COc1ccc(C[C@H]2c3c(ccc(OC)c3O)CCN2C)cc1`: the pIC50 in assay [4] was less than 4.30; in assay [2] it was 4.42; at Acetylcholinesterase, 4.59; at Cholinesterase, 4.48. Moreover, in assay [1], the inhibition worked out at 26.6%. The Ratio IC50 in assay [3] is 1.3.
Regarding `COc1cc2c(cc1O)[C@@H]1Cc3ccc(OC)c(O)c3CN1CC2` [SCOULERINE], the negative-log IC50 (pIC50) in assay [4] was less than 4.30; in assay [2], 4.36; against Acetylcholinesterase, 3.84; on Cholinesterase it was 4.21. The inhibition in assay [1] turned out to be 3.3%. For the same compound, in assay [3], the Ratio IC50 is 0.4.
Consider `COc1cc2c(c(O)c1OC)CC[N@+]1(C)Cc3c(ccc(O)c3OC)C[C@@H]21`, for which, in assay [1], the inhibition entry is “inactive”. Also, the pIC50 is 4.36 in assay [2], 3.88 against Acetylcholinesterase and less than 3.52 at Cholinesterase. Besides, the Ratio IC50 in assay [3] was more than 2.3.
`COc1cc2c(cc1OC)[C@@H]1Cc3ccc(O)c(OC)c3CN1CC2`: the negative logarithm of the IC50 (pIC50) is less than 4.30 in assay [4], less than 4.30 in assay [2], 3.68 against Acetylcholinesterase and 3.91 against Cholinesterase. The compound also came in with an inhibition in assay [1] of 10.7%. In assay [3], the Ratio IC50 came out at 0.6.
Regarding `COc1ccc2c(c1)C(=O)c1nccc3cc4c(c-2c13)OCO4` [ATHEROSPERMIDINE], the negative-log IC50 (pIC50) in assay [4] is 4.50; in assay [2], less than 4.30; against Acetylcholinesterase it was 4.96; on Cholinesterase it was less than 3.52. Also, the inhibition in assay [1] amounted to 86.2%. Also, in assay [5], the inhibition entry is “Active”. The Ratio IC50 in assay [3] was more than 27.5.
Regarding `COc1cc(O)c2c(c1)C[C@@H]1c3c(cc4c(c3-2)OCO4)CC[N@+]1(C)[O-]`, the pIC50 in assay [4] was less than 4.30; in assay [2], 5.00; at Acetylcholinesterase it was less than 3.52; on Cholinesterase, less than 3.52. The inhibition in assay [1] stood at 37.9%.
For `COc1cc(O)cc2c1-c1c3c(cc4c1[C@@H](C2)N(C)CC4)OCO3`, the negative logarithm of the IC50 (pIC50) in assay [4] is 4.45; in assay [2], 4.78; at Acetylcholinesterase, less than 3.52; on Cholinesterase, less than 3.52. The compound further gave an inhibition in assay [1] of 76%. In addition, in assay [5], the inhibition entry is “Active”.
Turning to `COc1ccc2c(c1)C[C@@H]1c3c(cc4c(c3-2)OCO4)CCN1C`, the pIC50 in assay [4] was less than 4.30; in assay [2], less than 4.30; at Acetylcholinesterase, 4.58; against Cholinesterase, 4.44. In addition, the inhibition in assay [1] turned out to be 38.2%. Moreover, in assay [3], the Ratio IC50 was 1.4.
Turning to `COc1ccc2c(c1)C[C@H]1NCCc3cc4c(c-2c31)OCO4`, the negative-log IC50 (pIC50) was less than 4.30 in assay [4], less than 4.30 in assay [2], 3.90 against Acetylcholinesterase and 4.16 on Cholinesterase. The compound also returned an inhibition in assay [1] of 28%. For the same compound, the Ratio IC50 in assay [3] stood at 0.5.
For the compound `COc1cc(O)c2c(c1)C[C@@H]1c3c(cc4c(c3-2)OCO4)CC[N@@+]1(C)[O-]`, the negative-log IC50 (pIC50) in assay [4] was less than 4.30; in assay [2], less than 4.30; against Acetylcholinesterase it was less than 3.52; against Cholinesterase, less than 3.52. In assay [1], this compound came in with an inhibition of 32.8%.
For `COc1cc2c(c(O)c1OC)CC[n+]1cc3c(OC)c(O)ccc3cc1-2`, in assay [1], the inhibition entry is “inactive”. Also, the pIC50 in assay [2] is less than 4.30; at Acetylcholinesterase it was 4.79; against Cholinesterase it was less than 3.52. Moreover, in assay [3], the Ratio IC50 was more than 18.3.
Take `COc1cc(O)c2c(c1)C[C@H]1NCCc3cc4c(c-2c31)OCO4`: the pIC50 in assay [4] was less than 4.30; in assay [2], less than 4.30; against Acetylcholinesterase, less than 3.52; at Cholinesterase it was less than 3.52. The same compound gave an inhibition in assay [1] of 10.2%.
`COc1cc2c(cc1O)CC[n+]1cc3c(OC)c(O)ccc3cc1-2`: the pIC50 was 4.30 in assay [4], 4.58 in assay [2], 4.75 at Acetylcholinesterase and 3.93 against Cholinesterase. The compound further returned an inhibition in assay [1] of 30%. Besides, in assay [3], the Ratio IC50 was determined as 6.7.
